In US8173635B2, “Kinase inhibitors” (Vertex Pharmaceuticals Incorporated, priority 2007, dated 2012):

Legend:
Format in all cases: biochemical
[1] = target: PKC delta kinase (Homo sapiens, UniProt Q05655); assay: PKC delta kinase inhibition, coupled-enzyme NADH absorbance assay (Ki); conditions: 150 μM ATP, 46 nM PKC delta, 30° C.; read-out: Ki PKC delta
Outline: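 Assay buffer was 100 mM HEPES pH 7.5, 10 mM MgCl2, 25 mM NaCl, 0.1 mM EDTA, 0.01% Brij. Enzyme buffer was equilibrated with compound in DMSO for 10 min at 30 °C. Ki values were derived by non-linear regression of initial rate data.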

[2] = target: PKC theta kinase (Homo sapiens, UniProt Q04759); assay: PKC theta kinase inhibition, coupled-enzyme NADH absorbance assay (Ki); conditions: 240 μM ATP, 18 nM PKC theta, 30° C.; read-out: Ki PKC theta
Outline: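 Enzyme and compound equilibrated 10 min at 30 °C before reaction in HEPES pH 7.5 buffer with MgCl2, NaCl, EDTA and Brij. Activity tracked as NADH loss at 340 nm through a coupled system. Initial-rate data fitted by non-linear regression to give Ki.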

[3] = target: PKC alpha kinase (Homo sapiens, UniProt P17252); assay: PKC alpha kinase inhibition, coupled-enzyme NADH absorbance assay (Ki); conditions: 130 μM ATP, 4.5 nM PKC alpha, 30° C.; read-out: Ki PKC alpha

Sequence of PKC delta kinase (Q05655 whole entry): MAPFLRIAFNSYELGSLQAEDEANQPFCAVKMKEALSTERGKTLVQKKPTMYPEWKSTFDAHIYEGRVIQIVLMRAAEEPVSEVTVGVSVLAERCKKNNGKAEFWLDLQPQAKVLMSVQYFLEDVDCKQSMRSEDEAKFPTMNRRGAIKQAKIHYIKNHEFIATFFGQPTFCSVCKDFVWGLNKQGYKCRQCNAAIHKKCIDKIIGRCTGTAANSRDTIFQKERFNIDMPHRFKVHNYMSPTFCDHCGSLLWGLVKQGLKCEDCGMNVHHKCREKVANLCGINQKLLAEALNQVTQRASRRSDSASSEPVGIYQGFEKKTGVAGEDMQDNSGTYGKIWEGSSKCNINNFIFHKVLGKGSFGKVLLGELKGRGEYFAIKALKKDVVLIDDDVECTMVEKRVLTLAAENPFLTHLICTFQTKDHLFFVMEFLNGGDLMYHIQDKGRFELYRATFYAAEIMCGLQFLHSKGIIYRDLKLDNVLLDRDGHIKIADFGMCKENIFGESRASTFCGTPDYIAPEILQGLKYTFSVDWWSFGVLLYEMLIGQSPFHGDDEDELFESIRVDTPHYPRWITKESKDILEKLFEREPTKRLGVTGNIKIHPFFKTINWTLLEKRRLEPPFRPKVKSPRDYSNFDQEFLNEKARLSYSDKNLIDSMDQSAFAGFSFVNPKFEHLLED
Sequence of PKC theta kinase (Q04759 whole entry): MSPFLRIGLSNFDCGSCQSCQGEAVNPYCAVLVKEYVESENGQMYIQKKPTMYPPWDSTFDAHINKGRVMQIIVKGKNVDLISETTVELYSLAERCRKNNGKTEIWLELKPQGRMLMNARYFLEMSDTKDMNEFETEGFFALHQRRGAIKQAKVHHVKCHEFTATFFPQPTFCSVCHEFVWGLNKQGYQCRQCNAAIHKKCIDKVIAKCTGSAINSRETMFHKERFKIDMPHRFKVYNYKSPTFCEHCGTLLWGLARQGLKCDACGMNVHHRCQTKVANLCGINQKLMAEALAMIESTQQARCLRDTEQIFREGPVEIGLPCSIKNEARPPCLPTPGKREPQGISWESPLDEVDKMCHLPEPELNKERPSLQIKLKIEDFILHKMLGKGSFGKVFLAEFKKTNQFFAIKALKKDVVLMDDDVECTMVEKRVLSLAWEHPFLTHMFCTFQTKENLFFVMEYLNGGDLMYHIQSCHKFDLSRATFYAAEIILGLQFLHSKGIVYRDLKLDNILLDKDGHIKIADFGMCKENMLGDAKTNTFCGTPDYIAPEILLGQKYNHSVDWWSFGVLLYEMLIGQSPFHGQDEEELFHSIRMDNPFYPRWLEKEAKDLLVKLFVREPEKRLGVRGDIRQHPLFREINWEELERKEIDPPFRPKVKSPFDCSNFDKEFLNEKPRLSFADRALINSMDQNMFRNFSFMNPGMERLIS

| SMILES | Ki [1] [nM] | Ki [2] [nM] | Ki [3] [nM] |
| --- | --- | --- | --- |
| Cc1cc(-c2ccnc3[nH]nc(Cl)c23)cc(C2(CN)CCOCC2)c1 [Compound 209] | < 500 | < 50 | < 500 |
| CCC(C)(CN(C)C)c1cccc(-c2ccnc3[nH]ncc23)c1 (stereo not drawn) [Compound 138, 2-(3-(1H-pyrazolo[3,4-b]pyridin-4-yl)phenyl)-N,N,2-trimethylbutan-1-amine] | < 2800 | < 500 | < 2800 |
| C=CCC1(c2cc(C)cc(-c3ccnc4[nH]ncc34)c2)CNC(=O)O1 (stereo not drawn) [Compound 325] | > 1200 | < 500 | < 500 |
| CC(CN)(Cc1ccccc1)c1cccc(-c2ccnc3[nH]ncc23)c1 (stereo not drawn) [Compound 149] | < 500 | < 50 | < 500 |
| CCCc1cc(-c2ccnc3[nH]ncc23)cc(C(C)(C)C#N)c1 [Compound 57] | > 2800 | < 50 | < 2800 |
| CCC(C)(C#N)c1cc(CCCOC)cc(-c2ccnc3[nH]ncc23)c1 (stereo not drawn) [Compound 109] | > 2000 | < 500 | < 2800 |
| CCC1(c2cccc(-c3ccnc4[nH]nc(C(F)(F)F)c34)c2)CNC(=O)O1 (stereo not drawn) [Compound 288] | < 2800 | < 50 | < 500 |
| Cc1cc(-c2ccnc3[nH]ncc23)cc(C2(CN)CNC(=O)O2)c1 (stereo not drawn) [Compound 310] | > 1200 | < 50 | < 2800 |
| C#CCC(CC)(CN)c1cccc(-c2ccnc3[nH]ncc23)c1 (stereo not drawn) [Compound 178] | < 500 | < 50 | < 500 |
| CC(O)c1cc(-c2ccnc3[nH]ncc23)cc(C(C)(C)C#N)c1 (stereo not drawn) [Compound 22] | > 2800 | < 500 | > 2800 |
| CC#CC[C@](C)(CN)c1cccc(-c2ccnc3[nH]ncc23)c1 [Compound 185] | < 50 | < 50 | < 50 |
| CCC(C)(C#N)c1cc(/C=C/C#N)cc(-c2ccnc3[nH]ncc23)c1 (stereo not drawn) [Compound 124] | > 2000 | > 700 | > 1200 |
| COCC[C@](C)(CN)c1cccc(-c2ccnc3[nH]nc(C(F)(F)F)c23)c1 [Compound 287] | < 2800 | < 50 | < 500 |
| CC/C=C\C1(c2cccc(-c3ccnc4[nH]ncc34)c2)CCNC1 (stereo not drawn) [Compound 198] | < 500 | < 50 | < 500 |
| CCC(C)(CN)c1cc(C)cc(-c2ccnc3[nH]ncc23)c1 (stereo not drawn) [Compound 144] | < 500 | < 50 | < 500 |
| CC(C)(O)C#Cc1cc(-c2ccnc3[nH]nc(C(F)(F)F)c23)cc(C2(C#N)CC2)c1 [Compound 315] | > 1200 | < 2800 | > 1200 |
| FC(F)CC1(c2cccc(-c3ccnc4[nH]ncc34)c2)CNC1 [Compound 191, 4-(3-(3-(2,2-Difluoroethyl)azetidin-3-yl)phenyl)-1H-pyrazolo[3,4-b]pyridine] | < 500 | < 50 | < 500 |
| CCCC(C)(C#N)c1cccc(-c2ccnc3[nH]ncc23)c1 (stereo not drawn) [Compound 69] | > 2800 | < 2800 | < 2800 |
| CC(C)(C#N)c1cc(-c2ccc[nH]2)cc(-c2ccnc3[nH]ncc23)c1 [Compound 59] | > 2800 | < 500 | > 2800 |
| Cc1cc(-c2ccnc3[nH]nc(C(F)(F)F)c23)cc(C2(CN)CC2)c1 [Compound 282] | < 500 | < 50 | < 500 |
| CCC(O)(c1cc(C)cc(-c2ccnc3[nH]nc(C(F)(F)F)c23)c1)C1CNC1 (stereo not drawn) [Compound 314] | < 500 | < 50 | < 2800 |
| Cc1cnc2[nH]ncc2c1-c1cccc(C(C)(C)CN)c1 [Compound 237, 2-methyl-2-(3-(5-methyl-1H-pyrazolo[3,4-b]pyridin-4-yl)phenyl)propan-1-amine] | < 2800 | < 2800 | < 500 |

| SMILES | Ki [1] [nM] | Ki [2] [nM] | Ki [3] [nM] |
| --- | --- | --- | --- |
| CCC(C)(CN)c1cc(CCCOC)cc(-c2ccnc3[nH]ncc23)c1 (stereo not drawn) [Compound 164] | < 2800 | < 50 | < 500 |
| C/C=C\c1cc(-c2ccnc3[nH]ncc23)cc(C(C)(CC)CN)c1 (stereo not drawn) [Compound 143] | < 500 | < 500 | < 2800 |
| CCCc1cc(-c2ccnc3[nH]ncc23)cc(C2(C#N)CCCC2)c1 [Compound 97] | > 2800 | < 500 | > 2800 |
| CCC(C)(C#N)c1cc(CO)cc(-c2ccnc3[nH]ncc23)c1 (stereo not drawn) [Compound 121] | > 2000 | < 500 | > 1200 |
| CCc1cc(-c2ccnc3[nH]nc(C(F)(F)F)c23)cc(C2(CN)CCC2)c1 [Compound 272] | < 2800 | < 50 | < 500 |
| NCC1(c2cc(F)cc(-c3ccnc4[nH]nc(C(F)(F)F)c34)c2)CCC1 [Compound 274] | < 500 | < 50 | < 50 |
| CC[C@@](C)(CN)c1cccc(-c2ccnc3[nH]ncc23)c1 [Compound 152] | < 500 | < 50 | < 500 |
| N#CC1(c2cc(CC(N)=O)cc(-c3ccnc4[nH]nc(C(F)(F)F)c34)c2)CC1 [Compound 329] | > 1200 | < 50 | > 1200 |
| CC(C#N)(Cc1cccnc1)c1cccc(-c2ccnc3[nH]ncc23)c1 (stereo not drawn) [Compound 116] | > 2000 | > 700 | > 1200 |
| CCc1n[nH]c2nccc(-c3cc(CCCN)cc(C4(C#N)CC4)c3)c12 [Compound 302] | < 500 | < 50 | < 2800 |
| CCc1cc(-c2ccnc3[nH]ncc23)cc(C(C)(CC)CN)c1 (stereo not drawn) [Compound 131] | < 2800 | < 50 | < 500 |
| CCC(N)c1cccc(-c2ccnc3[nH]ncc23)c1 (stereo not drawn) [Compound 245] | > 1200 | < 500 | > 1200 |
| NC(CCC1CCCCC1)c1cccc(-c2ccnc3[nH]ncc23)c1 (stereo not drawn) [Compound 252] | > 1200 | > 700 | > 1200 |
| CCc1n[nH]c2nccc(-c3cccc(C(C)(CC)CN)c3)c12 (stereo not drawn) [Compound 264] | < 50 | < 50 | < 50 |
| Cc1cc(-c2ccnc3[nH]nc(C(F)(F)F)c23)cc(C2(CN)CCOCC2)c1 [Compound 275] | < 500 | < 50 | < 500 |
| N#CC1(c2cccc(-c3ccnc4[nH]ncc34)c2)CCCC1 [Compound 74] | < 2800 | < 500 | < 2800 |
| CCC1(c2cccc(-c3ccnc4[nH]ncc34)c2)CCNC1 (stereo not drawn) [Compound 194] | < 500 | < 50 | < 500 |
| NC[C@]1(c2cccc(-c3ccnc4[nH]ncc34)c2)CC[C@@H](O)CC1 [Compound 182] | < 2800 | < 500 | > 1200 |
| CC(C)C(C)(CN)c1cccc(-c2ccnc3[nH]ncc23)c1 (stereo not drawn) [Compound 48] | < 500 | < 50 | < 500 |
| CC(F)c1cc(-c2ccnc3[nH]ncc23)cc(C(C)(C)C#N)c1 (stereo not drawn) [Compound 88] | < 2800 | < 50 | < 2800 |
| N[C@H]1CCC[C@@H]1c1cccc(-c2ccnc3[nH]ncc23)c1 [Compound 251] | > 1200 | < 500 | > 1200 |
